From US5929097A, “Preparation and use of ortho-sulfonamido aryl hydroxamic acids as matrix metalloproteinase and tace inhibitors” (American Cyanamid Company, priority 1997, dated 1999)
Like-named read-outs stand apart in the source and are kept apart here.

Columns and labels:
TACE = target: T1, TACE (Homo sapiens, UniProt P78536); experiment: TACE inhibition (fluorescent peptidyl substrate); format: biochemical
T1 construct: purchased Immunex

MMP9 = experiment: In vivo MMP inhibition (implanted dialysis tubing containing MMP enzyme); parameters: species or system rat (Sprague-Dawley) or mouse (CD-1)
MMP-9 = MMP-9 (Homo sapiens, UniProt P14780); experiment: biochemical
Sequence of MMP-9 (P14780 94-707): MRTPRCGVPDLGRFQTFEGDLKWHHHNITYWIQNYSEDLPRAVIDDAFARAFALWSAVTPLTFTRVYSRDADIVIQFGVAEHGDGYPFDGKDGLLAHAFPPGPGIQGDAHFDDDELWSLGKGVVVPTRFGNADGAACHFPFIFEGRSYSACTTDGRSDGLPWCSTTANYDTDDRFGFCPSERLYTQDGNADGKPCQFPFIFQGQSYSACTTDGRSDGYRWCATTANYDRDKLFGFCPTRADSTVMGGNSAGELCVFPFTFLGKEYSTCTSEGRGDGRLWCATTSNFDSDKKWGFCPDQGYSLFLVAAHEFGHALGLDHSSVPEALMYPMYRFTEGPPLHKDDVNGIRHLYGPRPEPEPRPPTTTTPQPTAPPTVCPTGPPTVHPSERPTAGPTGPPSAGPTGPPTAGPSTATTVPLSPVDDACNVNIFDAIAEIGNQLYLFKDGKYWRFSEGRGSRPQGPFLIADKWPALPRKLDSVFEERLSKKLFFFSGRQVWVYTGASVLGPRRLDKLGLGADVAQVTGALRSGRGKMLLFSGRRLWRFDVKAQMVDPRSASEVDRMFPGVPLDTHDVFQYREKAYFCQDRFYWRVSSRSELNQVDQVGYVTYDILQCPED

MMP-13 = MMP-13 (Homo sapiens, UniProt P45452); experiment: MMP-13 inhibition (thiopeptide/DTNB or fluorescent peptide substrate); format: biochemical
MMP-1 = target: T2, MMP-1 (Homo sapiens, UniProt P03956); experiment: MMP-1 inhibition (thiopeptide/DTNB or fluorescent peptide substrate); format: biochemical
T2 sequence (P03956 100-469): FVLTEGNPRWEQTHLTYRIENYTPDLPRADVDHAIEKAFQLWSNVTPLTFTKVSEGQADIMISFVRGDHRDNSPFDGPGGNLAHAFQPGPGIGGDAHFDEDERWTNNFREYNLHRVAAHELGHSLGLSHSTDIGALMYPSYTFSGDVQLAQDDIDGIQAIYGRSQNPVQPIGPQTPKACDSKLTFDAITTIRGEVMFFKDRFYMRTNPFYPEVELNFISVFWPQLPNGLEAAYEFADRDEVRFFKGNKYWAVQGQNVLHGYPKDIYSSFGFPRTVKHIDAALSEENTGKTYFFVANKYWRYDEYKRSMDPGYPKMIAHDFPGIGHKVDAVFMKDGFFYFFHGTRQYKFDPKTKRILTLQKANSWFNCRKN

T1 sequence (P78536 215-824): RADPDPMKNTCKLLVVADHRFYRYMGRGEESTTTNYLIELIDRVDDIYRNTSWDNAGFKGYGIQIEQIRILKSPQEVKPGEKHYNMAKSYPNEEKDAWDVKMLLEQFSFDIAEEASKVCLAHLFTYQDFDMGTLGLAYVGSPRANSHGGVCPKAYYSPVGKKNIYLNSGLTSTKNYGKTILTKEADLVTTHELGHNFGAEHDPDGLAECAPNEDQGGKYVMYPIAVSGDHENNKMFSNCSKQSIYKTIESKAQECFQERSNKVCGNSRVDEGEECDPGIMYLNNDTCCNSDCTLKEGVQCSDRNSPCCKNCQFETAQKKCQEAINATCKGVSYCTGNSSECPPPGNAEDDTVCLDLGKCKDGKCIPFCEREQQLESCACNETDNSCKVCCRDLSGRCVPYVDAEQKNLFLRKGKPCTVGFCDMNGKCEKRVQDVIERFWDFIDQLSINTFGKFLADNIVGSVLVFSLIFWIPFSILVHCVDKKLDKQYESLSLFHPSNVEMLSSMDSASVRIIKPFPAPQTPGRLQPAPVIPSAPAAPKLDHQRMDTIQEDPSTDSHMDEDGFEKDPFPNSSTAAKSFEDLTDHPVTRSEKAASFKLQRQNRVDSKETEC

Row | IC50 (MMP-9) [µM] | IC50 (MMP-1) [µM] | Structure (SMILES) | in-vivo MMP % inhibition vs. MMP9 (MMP9; 100 mg/kg, ip) [%] | also measured
1 |  |  | COc1ccc(S(=O)(=O)N(Cc2ccccc2)c2c(Cl)cccc2C(=O)NO)cc1 [Example 24, 2-[Benzyl-(4-methoxy-benzenesulfonyl)-amino]-3-chloro-N-hydroxy-benzamide] |  | IC50 (TACE; read-out: TACE IC50): 1 µM
2 |  |  | COc1ccc(S(=O)(=O)N(Cc2ccccc2)c2c(C)cc(Br)cc2C(=O)NO)cc1 [Example 25, 2-[Benzyl-(4-methoxy-benzenesulfonyl)-amino]-5-bromo-N-hydroxy-3-methyl-benzamide] | 32 | 
3 |  |  | COc1ccc(S(=O)(=O)N(Cc2ccccc2)c2c(OCc3ccccc3)cccc2C(=O)NO)cc1 [Example 34, 2-[Benzyl-(4-methoxy-benzenesulfonyl)-amino]-3-benzyloxy-N-hydroxy-benzamide] | 31.6 | 
4 |  |  | COc1ccc(S(=O)(=O)N(Cc2cccnc2)c2c(C)cc(Br)cc2C(=O)NO)cc1 [Example 91, 5-Bromo-N-hydroxy-2-[(4-methoxy-benzenesulfonyl)-pyridin-3-ylmethyl-amino]-3-methyl-benzamide] |  | in-vivo MMP % inhibition vs. MMP9 (MMP9; 100 mg/kg, po): 55%
5 |  |  | CCCN(c1c(C)cc(C)cc1C(=O)NO)S(=O)(=O)c1ccc(OC)cc1 [Example 117, N-Hydroxy-2-[(4-methoxy-benzenesulfonyl)-propyl-amino]-3,5-dimethyl-benzamide] | 28.3 | 
6 | 0.007 | 0.055 | COc1ccc(S(=O)(=O)N(Cc2cccnc2)c2c(C(=O)NO)cc(C)cc2-c2cccs2)cc1 [Example 145, N-Hydroxy-2-[(4-methoxy-benzenesulfonyl)-pyridin-3-ylmethyl-amino]-5-methyl-3-thiophen-2-yl-benzamide] |  | IC50 (TACE; read-out: TACE IC50): 0.158 µM; IC50 (MMP-13; read-out: MMP-13 IC50): 0.003 µM
7 |  | 0.02 | CCCCCCCCN(c1c(CN2CCN(C)CC2)cccc1C(=O)NO)S(=O)(=O)c1ccc(OC)cc1 [Example 325, N-Hydroxy-2-[(4-methoxy-benzenesulfonyl)-octyl-amino] -3-(4-methyl-piperazin-1-ylmethyl)-benzamide] |  | 
8 | 0.0068 | 3.25 | Cc1cccc(C(=O)NO)c1N(C)S(=O)(=O)c1ccc(Oc2ccncc2)cc1 [Example 417] |  | 

Row | Structure (SMILES) | IC50 (MMP-9) [µM] | IC50 (MMP-1) [µM] | in-vivo MMP % inhibition vs. MMP9 (MMP9; 100 mg/kg, ip) [%] | also measured
9 | COc1ccc(S(=O)(=O)N(Cc2cccnc2)c2c(OCc3cccnc3)cccc2C(=O)NO)cc1 [Example 61] | 0.034 |  |  | IC50 (TACE): 0.289 µM; IC50 (MMP-13): 0.033 µM; in-vivo MMP % inhibition vs. MMP9 (MMP9; 20 mg/kg, po): 46%; in-vivo MMP % inhibition vs. MMP9 (MMP9; 50 mg/kg, po): 59%
